Experimental data published in patent publication US20080312301A1, “Substituted N-Benzo[D]Isoxazol-3-Yl-Amine Compounds as Inhibitors of Mglur5, Serotonin (5-Ht) and Noradrenaline Receptors, and Uses Thereof” (Gruenenthal GmbH, priority 2005, published 2008).

Each compound was assayed against T1, mGluR5 receptor (Sus scrofa, UniProt I3LUI7) (assay: Affinity for the mGluR5 receptor: displacement of 3[H]-MPEP binding in pig brain homogenate). Settings: 10 μM compound, 5 nM 3[H]-MPEP.
T1 construct: 450 μg of protein from brain homogenate are incubated with 5 nM^3[H]-MPEP; from tissue; host or cells: pig brain hemispheres without medulla, cerebellum and pons
T1 sequence (I3LUI7 19-1212): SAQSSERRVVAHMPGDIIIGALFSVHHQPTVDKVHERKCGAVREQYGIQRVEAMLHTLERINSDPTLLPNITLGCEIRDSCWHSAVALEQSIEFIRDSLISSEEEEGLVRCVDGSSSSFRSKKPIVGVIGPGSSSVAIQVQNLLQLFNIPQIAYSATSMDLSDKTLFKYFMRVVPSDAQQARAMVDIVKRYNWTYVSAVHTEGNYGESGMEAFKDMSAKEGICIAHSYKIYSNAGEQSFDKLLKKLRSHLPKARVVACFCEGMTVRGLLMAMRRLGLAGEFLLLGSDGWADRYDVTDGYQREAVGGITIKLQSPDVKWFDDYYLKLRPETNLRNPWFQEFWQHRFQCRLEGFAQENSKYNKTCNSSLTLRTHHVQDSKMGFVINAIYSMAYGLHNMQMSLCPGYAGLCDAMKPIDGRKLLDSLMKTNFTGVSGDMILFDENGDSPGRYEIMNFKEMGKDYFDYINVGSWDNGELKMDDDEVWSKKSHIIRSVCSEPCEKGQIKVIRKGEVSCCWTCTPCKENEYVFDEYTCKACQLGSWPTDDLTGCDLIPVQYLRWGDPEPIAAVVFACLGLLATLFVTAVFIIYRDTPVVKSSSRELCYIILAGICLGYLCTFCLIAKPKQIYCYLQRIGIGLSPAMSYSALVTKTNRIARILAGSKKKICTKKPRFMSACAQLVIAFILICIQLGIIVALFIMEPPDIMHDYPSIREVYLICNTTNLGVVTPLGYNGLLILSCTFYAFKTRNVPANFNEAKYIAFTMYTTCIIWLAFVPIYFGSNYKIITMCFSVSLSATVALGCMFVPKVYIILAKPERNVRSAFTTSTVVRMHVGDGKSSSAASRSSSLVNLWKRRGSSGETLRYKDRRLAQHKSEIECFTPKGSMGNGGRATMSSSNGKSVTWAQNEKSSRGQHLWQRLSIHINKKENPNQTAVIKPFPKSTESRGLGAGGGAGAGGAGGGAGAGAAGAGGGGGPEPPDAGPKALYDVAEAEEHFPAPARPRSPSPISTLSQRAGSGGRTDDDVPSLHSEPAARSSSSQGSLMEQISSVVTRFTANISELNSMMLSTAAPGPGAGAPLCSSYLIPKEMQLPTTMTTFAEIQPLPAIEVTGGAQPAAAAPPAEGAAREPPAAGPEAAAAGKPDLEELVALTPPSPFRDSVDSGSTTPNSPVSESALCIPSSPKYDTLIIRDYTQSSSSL
Experimental: II. Method for Determining the Affinity for the mGluR5 Receptor
In each case 450 μg of protein from brain homogenate are incubated with 5 nM^3[H]-MPEP (Tocris, order No. R1212) (MPEP=2-methyl-6-[…]) and the compounds to be investigated (10 μM in the assay) in buffer (as above) in 250 μl incubation mixtures in 96-well microtiter plates at room temperature for 60 min.
The filter plates were then dried at 55° C. for 60 min.

Row | inhibition at 10 µM [%] | mGluR5 receptor inhibition of the 3[H]-MPEP binding in % (10 μM) [%] | Compound
1 | 63.2 | – | CCCCC(CC)C(=O)Nc1noc2ccccc12 (stereo not shown) [Example 85, N-benzo[d]isoxazol-3-yl-2-ethylhexanamide]
2 | 39.6 | – | CCC(C)C(=O)Nc1noc2ccccc12 (stereo not shown) [Example 86, N-benzo[d]isoxazol-3-yl-2-methylbutyramide]
3 | 37 | – | O=C(Nc1noc2ccccc12)c1c(F)cccc1F [Example 87, N-benzo[d]isoxazol-3-yl-2,6-difluorobenzamide]
4 | 30 | – | O=C(Nc1noc2ccccc12)c1ccc(C(F)(F)F)c(F)c1 [Example 88, N-benzo[d]isoxazol-3-yl-3-fluoro-4-trifluoromethylbenzamide]
5 | 51.1 | – | O=C(Nc1noc2ccccc12)c1c(F)ccc(F)c1F [Example 89, N-benzo[d]isoxazol-3-yl-2,3,6-trifluorobenzamide]
6 | 50.3 | – | O=C(Nc1noc2ccccc12)c1cccnc1 [Example 90, N-benzo[d]isoxazol-3-ylnicotinamide]
7 | – | 35.00 | Cc1cc(C(=O)Nc2noc3ccccc23)no1 [Example 91, 5-methylisoxazole-3-benzo[d]isoxazol-3-ylcarboxamide]
8 | – | 55.98 | O=C(Nc1noc2ccccc12)c1csc2ccccc12 [Example 92, benzo[b]thiophene-3-benzo[d]isoxazol-3-ylcarboxamide]
9 | 35.4 | – | O=C(Nc1noc2c(F)cccc12)c1ccccc1Cl [Example 93, 2-chloro-N-(7-fluorobenzo[d]isoxazol-3-yl)benzamide]
10 | 30.8 | – | CC(C)(C)c1ccc(C(=O)Nc2noc3c(F)cccc23)cc1 [Example 94, 4-tert-butyl-N-(7-fluorobenzo[d]isoxazol-3-yl)benzamide]
11 | 45.8 | – | O=C(Nc1noc2c(F)cccc12)c1ccccc1 [Example 95, N-(7-fluorobenzo[d]isoxazol-3-yl)benzamide]
12 | 30.5 | – | O=C(Nc1noc2c(F)cccc12)c1ccc(F)cc1 [Example 96, 4-fluoro-N-(7-fluorobenzo[d]isoxazol-3-yl)benzamide]
13 | 32 | – | COc1ccccc1C(=O)Nc1noc2c(F)cccc12 [Example 98, N-(7-fluorobenzo[d]isoxazol-3-yl)-2-methoxybenzamide]
14 | 43 | – | Cc1ccccc1C(=O)Nc1noc2c(F)cccc12 [Example 99, N-(7-fluorobenzo[d]isoxazol-3-yl)-2-methylbenzamide]
15 | 33.3 | – | O=C(Nc1noc2cc(F)ccc12)c1cc(F)cc(F)c1 [Example 100, 3,5-difluoro-N-(6-fluorobenzo[d]isoxazol-3-yl)benzamide]
16 | – | 48.99 | O=C(Nc1noc2cc(F)ccc12)c1cccc2ccccc12 [Example 101, naphthalene-1-(6-fluorobenzo[d]isoxazol-3-yl)carboxamide]
17 | – | 52.11 | O=C(Nc1noc2cc(F)ccc12)C12CC3CC(CC(C3)C1)C2 [Example 102, adamantane-1-(6-fluorobenzo[d]isoxazol-3-yl)carboxamide]
18 | 41.2 | – | O=C(Nc1noc2ccc(F)cc12)c1ccccc1Br [Example 103, 2-bromo-N-(5-fluorobenzo[d]isoxazol-3-yl)benzamide]
19 | 44.6 | – | CC(C)(C)c1ccc(C(=O)Nc2noc3ccc(F)cc23)cc1 [Example 104, 4-tert-butyl-N-(5-fluorobenzo[d]isoxazol-3-yl)benzamide]
20 | 53.8 | – | O=C(Nc1noc2ccc(F)cc12)c1ccc(F)cc1F [Example 105, 2,4-difluoro-N-(5-fluorobenzo[d]isoxazol-3-yl)benzamide]
21 | – | 33.72 | O=C(Nc1noc2ccc(F)cc12)c1ccc2ccccc2c1 [Example 106, naphthalene-2-(5-fluorobenzo[d]isoxazol-3-yl)carboxamide]
22 | 42.1 | – | CCCc1ccc(C(=O)Nc2noc3ccc(F)cc23)cc1 [Example 107, N-(5-fluorobenzo[d]isoxazol-3-yl)-4-propylbenzamide]
